Four molecules from ChEMBL document CHEMBL1201862, “PubChem BioAssay data set” (2004) can be followed below.

Test systems include U-251; NCI-H522; EKVX; PC-3; T47D; COLO 205; HCT-15; SF-295; MCF7; DU-145; SK-OV-3; UO-31; Hs-578T; SF-539; RPMI-8226; OVCAR-5; 786-0; TK-10; SNB-75.
Assay in all cases: NCI anticancer screen, dose series, 48 h

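Grown in 96-well plates, cells were treated for 48 hours with each compound at five concentrations. Insufficient inhibition: endpoint recorded as highest concentration tested. Abbreviation: GI50, concentration required for 50% inhibition of growth.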 Calls of active or inactive are those of the source. Cut-off read from the data, not from the text of the source: active = GI50 up to about 1.1 µM and inactive = higher. A value given as a limit tells only on which side of the number the result lay.

Regarding `Nc1ccc(S(=O)(=O)NCc2nccs2)cc1`, the GI50 with U-251 is 21.8 µM (inactive); in the test on NCI-H522 it was 16.6 µM (inactive); in the test on EKVX, 17.3 µM (inactive); in the test on PC-3, 30.1 µM (inactive); with T47D, 24.1 µM (inactive); in the test with COLO 205, 18.4 µM (inactive). Also, the GI50 is 26.7 µM with HCT-15; 32 µM (inactive) in the test with SF-295; 23.4 µM (inactive) in the test on MCF7; 29 µM (inactive) in the test with DU-145; 32.3 µM (inactive) in the test on SK-OV-3; 22.3 µM (inactive) in the test with UO-31. Besides, the GI50 was 27.3 µM (inactive) with Hs-578T; 19.1 µM (inactive) in the test with SF-539; 25.8 µM (inactive) with RPMI-8226; 17.9 µM (inactive) with OVCAR-5; 28.3 µM (inactive) in the test on 786-0; 22.2 µM (inactive) in the test with TK-10. In addition, the GI50 with SNB-75 was 23.2 µM (inactive).

As to `COC(=O)c1c(CC(Cc2ccc3c(c2)CCCC3)C(=O)OC)ccc2c1CCCC2` (stereo unspecified), the GI50 with U-251 was 98.2 µM (inactive); with NCI-H522 it was > 100 µM (inactive); with EKVX, 19.5 µM (inactive); in the test with PC-3, 38.7 µM (inactive); in the test on T47D it was 35.8 µM (inactive); in the test on COLO 205, 19.9 µM (inactive). Further, the GI50 in the test on HCT-15 was 46.2 µM; with SF-295 it was > 100 µM (inactive); in the test with MCF7, 20.6 µM (inactive); in the test on DU-145 it was > 100 µM (inactive); in the test on SK-OV-3, 39.2 µM (inactive); in the test on UO-31, 82.8 µM (inactive). The GI50 with Hs-578T is > 100 µM (inactive); in the test with SF-539 it was > 100 µM (inactive); in the test with RPMI-8226 it was 24.9 µM (inactive); with OVCAR-5, > 100 µM (inactive); in the test on 786-0 it was > 100 µM (inactive); in the test on TK-10, > 100 µM (inactive). The GI50 in the test on SNB-75 is > 10 µM (inactive).

In the case of `Clc1ccc(/C=C/c2nc3ccccc3s2)cc1Cl`, the GI50 with U-251 is 25.7 µM (inactive); in the test on NCI-H522, > 100 µM (inactive); in the test with EKVX, 51.8 µM (inactive); in the test with PC-3, 1.69 µM (inactive); in the test with T47D, 1.66 µM (inactive); in the test on COLO 205 it was 54.1 µM (inactive). In addition, the GI50 with HCT-15 was above 100 µM; with SF-295, 28.1 µM (inactive); in the test with MCF7 it was 15.1 µM (inactive); in the test on DU-145 it was > 100 µM (inactive); with SK-OV-3 it was 50.1 µM (inactive); in the test on UO-31, 22.1 µM (inactive). Moreover, the GI50 was 23.7 µM (inactive) in the test with Hs-578T; 91.8 µM (inactive) with SF-539; 41.7 µM (inactive) with RPMI-8226; 80.7 µM (inactive) with OVCAR-5; 15 µM (inactive) in the test with 786-0; 34.4 µM (inactive) in the test with TK-10. Moreover, the GI50 in the test with SNB-75 is 12.8 µM (inactive).

As to `C/C=C/C=C/c1nc(C#N)c(N)o1`, the GI50 in the test on U-251 was > 100 µM (inactive); in the test on NCI-H522 it was 41.6 µM (inactive); in the test on EKVX it was > 100 µM (inactive); with PC-3, 36.6 µM (inactive); in the test on T47D, > 100 µM (inactive); in the test with COLO 205 it was > 100 µM (inactive). The GI50 in the test on HCT-15 is above 100 µM; in the test with SF-295 it was > 100 µM (inactive); in the test with MCF7, > 100 µM (inactive); with DU-145, > 100 µM (inactive); in the test with SK-OV-3, > 100 µM (inactive); with UO-31, 18.3 µM (inactive). Also, the GI50 in the test on Hs-578T, with SF-539, in the test with RPMI-8226, in the test on OVCAR-5, in the test with 786-0 and in the test on TK-10 was > 100 µM (inactive) each time. Also, the GI50 in the test on SNB-75 is > 100 µM (inactive).
